{"source": "patent US20260345517A1", "about": "“DOSAGE REGIMENS FOR TREATING STARGARDT DISEASE” (Alkeus Pharmaceuticals, Inc., priority 2024, published 2026)", "assay": "TEASE-1: safety and adverse events", "format": "in vivo, human", "experimental": "The Tolerability and Effects of gildeuretinol acetate in Stargardt Disease (Clinical trial group 1 also known as TEASE-1) was a 24-month, multicenter, double-masked, placebo-controlled trial designed to evaluate the efficacy and safety of daily oral gildeuretinol acetate in slowing the growth of atrophic retinal lesions in Stargardt disease patients. The trial was conducted at multiple sites in the United States (NCT02402660).\nPatients 12 years or older, clinically diagnosed with Stargardt disease, with at least one ABCA4 mutation, at least one eye presenting with well-demarcated areas of reduced fundus autofluorescence, and with any visual acuity, were eligible.\nPatients were randomized to gildeuretinol acetate 14 mg capsules, gildeuretinol acetate 24 mg capsules, or placebo capsules, to be taken once daily for one year. After one year, 50% of randomly selected patients receiving placebo were crossed over in a 1:1 ratio to gildeuretinol acetate 14 mg capsules or gildeuretinol acetate 24 mg capsules for a second year.\nGildeuretinol acetate and placebo capsules were identical appearing capsules. Patients were advised to avoid vitamin A-containing supplements and liver-based products. Fruits and vegetables contain beta-carotene, not preformed vitamin A, and could be consumed without limitation. Trial visits occurred at 8 weeks and 6, 12, 18, and 24 months following screening and randomization."}
{"smiles": "CC(=O)OC/C=C(C)/C=C/C=C(C)/C=C/C1=C(C)CCCC1(C)C", "note": "[gildeuretinol acetate, C20-D3-retinol acetate]", "values": [{"measurement": "Photopsia", "setting": "14 mg, N = 15", "value": "1 (6.7) patients (%)"}, {"measurement": "Plantar fasciitis", "setting": "14 mg, N = 15", "value": "1 (6.7) patients (%)"}, {"measurement": "Pleurisy", "setting": "14 mg, N = 15", "value": "0 patients (%)"}, {"measurement": "Pneumonia", "setting": "14 mg, N = 15", "value": "0 patients (%)"}, {"measurement": "Premenstrual syndrome", "setting": "14 mg, N = 15", "value": "0 patients (%)"}, {"measurement": "Punctate keratitis", "setting": "14 mg, N = 15", "value": "1 (6.7) patients (%)"}, {"measurement": "Pyrexia", "setting": "14 mg, N = 15", "value": "0 patients (%)"}, {"measurement": "Radius fracture", "setting": "14 mg, N = 15", "value": "1 (6.7) patients (%)"}, {"measurement": "Rash", "setting": "14 mg, N = 15", "value": "1 (6.7) patients (%)"}, {"measurement": "Rotator cuff syndrome", "setting": "14 mg, N = 15", "value": "0 patients (%)"}, {"measurement": "Sialoadenitis", "setting": "14 mg, N = 15", "value": "1 (6.7) patients (%)"}, {"measurement": "Sinus congestion", "setting": "14 mg, N = 15", "value": "0 patients (%)"}, {"measurement": "Sinusitis", "setting": "14 mg, N = 15", "value": "1 (6.7) patients (%)"}, {"measurement": "Sjogren's syndrome", "setting": "14 mg, N = 15", "value": "1 (6.7) patients (%)"}, {"measurement": "Skin infection", "setting": "14 mg, N = 15", "value": "0 patients (%)"}, {"measurement": "Subdural haematoma", "setting": "14 mg, N = 15", "value": "1 (6.7) patients (%)"}, {"measurement": "Syncope", "setting": "14 mg, N = 15", "value": "0 patients (%)"}, {"measurement": "Tendonitis", "setting": "14 mg, N = 15", "value": "1 (6.7) patients (%)"}, {"measurement": "Thoracic outlet syndrome", "setting": "14 mg, N = 15", "value": "0 patients (%)"}, {"measurement": "Tongue dry", "setting": "14 mg, N = 15", "value": "1 (6.7) patients (%)"}, {"measurement": "Tooth abscess", "setting": "14 mg, N = 15", "value": "0 patients (%)"}, {"measurement": "Tooth extraction", "setting": "14 mg, N = 15", "value": "0 patients (%)"}, {"measurement": "Toothache", "setting": "14 mg, N = 15", "value": "0 patients (%)"}, {"measurement": "Upper respiratory tract infection", "setting": "14 mg, N = 15", "value": "1 (6.7) patients (%)"}, {"measurement": "Vision blurred", "setting": "14 mg, N = 15", "value": "1 (6.7) patients (%)"}, {"measurement": "Visual field defect", "setting": "14 mg, N = 15", "value": "0 patients (%)"}, {"measurement": "Visual impairment", "setting": "14 mg, N = 15", "value": "1 (6.7) patients (%)"}, {"measurement": "Vitamin B12 deficiency", "setting": "14 mg, N = 15", "value": "1 (6.7) patients (%)"}, {"measurement": "Vitamin D decreased", "setting": "14 mg, N = 15", "value": "2 (13.3) patients (%)"}, {"measurement": "Vitreous floaters", "setting": "14 mg, N = 15", "value": "1 (6.7) patients (%)"}, {"measurement": "Vulvovaginal candidiasis", "setting": "14 mg, N = 15", "value": "0 patients (%)"}, {"measurement": "Wrist fracture", "setting": "14 mg, N = 15", "value": "0 patients (%)"}, {"measurement": "Xanthelasma", "setting": "14 mg, N = 15", "value": "0 patients (%)"}, {"measurement": "blurred optic disc margins with transient visual obscuration", "setting": "24 mg, 12-month visit, ocular exam", "value": "observed in one patient"}, {"measurement": "Abdominal discomfort", "setting": "24 mg, N = 15", "value": "1 (6.7) patients (%)"}, {"measurement": "Abdominal distension", "setting": "24 mg, N = 15", "value": "1 (6.7) patients (%)"}, {"measurement": "Abdominal pain upper", "setting": "24 mg, N = 15", "value": "1 (6.7) patients (%)"}, {"measurement": "Abnormal dreams", "setting": "24 mg, N = 15", "value": "1 (6.7) patients (%)"}, {"measurement": "Adverse events, Overall", "setting": "24 mg, N = 15", "value": "13 (86.7) patients (%)"}, {"measurement": "Alanine aminotransferase increased", "setting": "24 mg, N = 15", "value": "0 patients (%)"}, {"measurement": "Alopecia", "setting": "24 mg, N = 15", "value": "0 patients (%)"}, {"measurement": "Ankle fracture", "setting": "24 mg, N = 15", "value": "0 patients (%)"}, {"measurement": "Arthralgia", "setting": "24 mg, N = 15", "value": "1 (6.7) patients (%)"}, {"measurement": "Arthritis", "setting": "24 mg, N = 15", "value": "0 patients (%)"}, {"measurement": "Aspartate aminotransferase increased", "setting": "24 mg, N = 15", "value": "0 patients (%)"}, {"measurement": "Back injury", "setting": "24 mg, N = 15", "value": "0 patients (%)"}, {"measurement": "Back pain", "setting": "24 mg, N = 15", "value": "1 (6.7) patients (%)"}, {"measurement": "Blepharospasm", "setting": "24 mg, N = 15", "value": "0 patients (%)"}, {"measurement": "Blood cholesterol increased", "setting": "24 mg, N = 15", "value": "1 (6.7) patients (%)"}, {"measurement": "Blood creatinine increased", "setting": "24 mg, N = 15", "value": "0 patients (%)"}, {"measurement": "Blood iron decreased", "setting": "24 mg, N = 15", "value": "1 (6.7) patients (%)"}, {"measurement": "Blood pressure increased", "setting": "24 mg, N = 15", "value": "1 (6.7) patients (%)"}, {"measurement": "Blood triglycerides increased", "setting": "24 mg, N = 15", "value": "0 patients (%)"}, {"measurement": "Bowel movement irregularity", "setting": "24 mg, N = 15", "value": "1 (6.7) patients (%)"}, {"measurement": "Bronchitis", "setting": "24 mg, N = 15", "value": "0 patients (%)"}, {"measurement": "Cartilage injury", "setting": "24 mg, N = 15", "value": "0 patients (%)"}, {"measurement": "Conjunctival laceration", "setting": "24 mg, N = 15", "value": "1 (6.7) patients (%)"}, {"measurement": "Conjunctivitis", "setting": "24 mg, N = 15", "value": "0 patients (%)"}, {"measurement": "Constipation", "setting": "24 mg, N = 15", "value": "1 (6.7) patients (%)"}, {"measurement": "Cough", "setting": "24 mg, N = 15", "value": "2 (13.3) patients (%)"}, {"measurement": "Death", "setting": "24 mg, N = 15", "value": "0 patients (%)"}, {"measurement": "Depression", "setting": "24 mg, N = 15", "value": "0 patients (%)"}, {"measurement": "Diarrhoea", "setting": "24 mg, N = 15", "value": "0 patients (%)"}, {"measurement": "Diplopia", "setting": "24 mg, N = 15", "value": "1 (6.7) patients (%)"}, {"measurement": "Dry eye", "setting": "24 mg, N = 15", "value": "1 (6.7) patients (%)"}, {"measurement": "Dry mouth", "setting": "24 mg, N = 15", "value": "0 patients (%)"}, {"measurement": "Dry skin", "setting": "24 mg, N = 15", "value": "1 (6.7) patients (%)"}, {"measurement": "Ear discomfort", "setting": "24 mg, N = 15", "value": "1 (6.7) patients (%)"}, {"measurement": "Ear infection", "setting": "24 mg, N = 15", "value": "0 patients (%)"}, {"measurement": "Ear pain", "setting": "24 mg, N = 15", "value": "0 patients (%)"}, {"measurement": "Eczema", "setting": "24 mg, N = 15", "value": "0 patients (%)"}, {"measurement": "Electrocardiogram abnormal", "setting": "24 mg, N = 15", "value": "0 patients (%)"}, {"measurement": "Erythema", "setting": "24 mg, N = 15", "value": "0 patients (%)"}, {"measurement": "Eye irritation", "setting": "24 mg, N = 15", "value": "0 patients (%)"}, {"measurement": "Eye pain", "setting": "24 mg, N = 15", "value": "1 (6.7) patients (%)"}, {"measurement": "Eye pruritus", "setting": "24 mg, N = 15", "value": "1 (6.7) patients (%)"}, {"measurement": "Face injury", "setting": "24 mg, N = 15", "value": "0 patients (%)"}, {"measurement": "Faeces soft", "setting": "24 mg, N = 15", "value": "0 patients (%)"}, {"measurement": "Fall", "setting": "24 mg, N = 15", "value": "1 (6.7) patients (%)"}, {"measurement": "Gastroenteritis", "setting": "24 mg, N = 15", "value": "0 patients (%)"}, {"measurement": "Gastroenteritis viral", "setting": "24 mg, N = 15", "value": "1 (6.7) patients (%)"}, {"measurement": "Hair texture abnormal", "setting": "24 mg, N = 15", "value": "0 patients (%)"}, {"measurement": "Hand fracture", "setting": "24 mg, N = 15", "value": "0 patients (%)"}, {"measurement": "Headache", "setting": "24 mg, N = 15", "value": "2 (13.3) patients (%)"}, {"measurement": "Herpes zoster", "setting": "24 mg, N = 15", "value": "0 patients (%)"}, {"measurement": "Hordeolum", "setting": "24 mg, N = 15", "value": "1 (6.7) patients (%)"}, {"measurement": "Hypertension", "setting": "24 mg, N = 15", "value": "1 (6.7) patients (%)"}, {"measurement": "Hypobarism", "setting": "24 mg, N = 15", "value": "1 (6.7) patients (%)"}, {"measurement": "Hypothyroidism", "setting": "24 mg, N = 15", "value": "1 (6.7) patients (%)"}, {"measurement": "Hysterectomy", "setting": "24 mg, N = 15", "value": "1 (6.7) patients (%)"}]}
